Assay results from ChEMBL document CHEMBL2177023, “Effects of antimalarial molecules on the gametocyte stage of Plasmodium falciparum: the debate” (J Med Chem, 2012).
One block for each molecule: values may come before it.

Legend:
[1] = tested on: Plasmodium berghei; assay: Antimalarial activity against Plasmodium berghei infected in mosquitoes assessed as reduction in number of sporozoites; type: functional; parameters: scale not given: the % may be the effect or the level left
[2] = tested on: Plasmodium berghei; assay: Antimalarial activity against Plasmodium berghei infected in mosquitoes assessed as reduction in number of oocysts; type: functional; parameters: scale not given: the % may be the effect or the level left
[3] = tested on: Plasmodium chabaudi; assay: Antimalarial activity against Plasmodium chabaudi infected rat malaria model; type: functional
[4] = tested on: Plasmodium falciparum; assay: Antimalarial activity against Plasmodium falciparum KT3 gametocytes; type: functional, organism-based
[5] = tested on: Plasmodium falciparum; assay: Antimalarial activity against Plasmodium falciparum KT1 gametocytes; type: functional, organism-based
[6] = tested on: Plasma; assay: (§1) Half life in human plasma; type: ADME, cell-free
[7] = tested on: Plasmodium falciparum; assay: Antimalarial activity against Plasmodium falciparum gametocytes; type: functional, organism-based
[8] = as §1; type: ADME, cell-free
[9] = tested on: Plasmodium falciparum; assay: Antimalarial activity against Plasmodium falciparum stage 3 to 5 gametocytes; type: functional, organism-based
[10] = tested on: Plasmodium falciparum; assay: Antimalarial activity against Plasmodium falciparum gametocytes by GFP-luciferase reporter gene assay; type: functional, organism-based
[11] = tested on: Plasmodium falciparum; assay: Antimalarial activity against transgenic Plasmodium falciparum 3D7 GFP16B gametocytes; type: functional, organism-based

SMILES: COc1cc2cc(C(=O)Nc3cc(N)c4ccccc4c3CCCl)[nH]c2c(OC)c1OC [CENTANAMYCIN]
- Activity [1]: 99%
- Activity [2]: 83%
- ED50 [3]: 1.5 mg/kg

- IC50 [4]: 2.1 µM
- IC50 [5]: 0.8 µM
- t1/2 [6]: 0.03 weeks
SMILES: COc1cc(NC(C)CCCN)c2ncccc2c1 (stereo unspecified) [PRIMAQUINE]

SMILES: C=C(NC(=O)C(=C)NC(=O)c1csc(C2=N[C@@H]3c4csc(n4)[C@H]4NC(=O)c5csc(n5)[C@H]([C@](C)(O)[C@@H](C)O)NC(=O)[C@H]5CSC(=N5)/C(=C/C)NC(=O)[C@H]([C@@H](C)O)NC(=O)c5csc(n5)[C@]3(CC2)NC(=O)[C@H](C)NC(=O)C(=C)NC(=O)[C@H](C)NC(=O)[C@H]([C@@H](C)CC)N[C@@H]2C=Cc3c([C@H](C)O)cc(nc3[C@H]2O)C(=O)O[C@@H]4C)n1)C(N)=O [THIOSTREPTON]
- IC50 [7]: < 10 µM

- half-life [8]: 14 days
SMILES: COc1cc(C)c2c(Oc3cccc(C(F)(F)F)c3)c(OC)cc(NC(C)CCCN)c2n1 (stereo unspecified) [TAFENOQUINE]

- IC50 [9]: 0.002 µM
SMILES: CC[C@H](C)[C@H](NC(=O)[C@H]([C@@H](C)CC)N(C)C(C)=O)C(=O)N[C@H](C(=O)N[C@@H](CC(C)C)C(=O)[C@@]1(C)CO1)[C@@H](C)O [EPOXOMYCIN]

- IC50 [10]: 0.012 µM
SMILES: CN(C)c1ccc2nc3ccc(=[N+](C)C)cc-3sc2c1 [METHYLENE BLUE CATION]

SMILES: COc1cc(N[C@H](C)CCCN)c2nccc(C)c2c1Oc1ccc(Cl)c(Cl)c1
- IC50 [7]: 3.8 µM

- IC50 [4]: 0.6 µM
- IC50 [5]: 0.6 µM
SMILES: CN(C)Cc1ccc(Nc2c3ccccc3nc3ccccc23)cc1

- IC50 [11]: 0.023 µM
- IC50 [4]: 0.02 µM
- IC50 [5]: 0.006 µM
SMILES: COc1ccc2nc3cc(Cl)ccc3c(Nc3cc(CN4CCCC4)c(O)c(CN4CCCC4)c3)c2n1 [PYRONARIDINE]
